Experimental data as given in US20140194392A1 (priority 2013, published 2014).

Columns and labels:
A/WSN/33 (H1N1) = assay type: cell-based, influenza A/WSN/33 (H1N1)
Bac-NA^WT = Bac-NA^WT (Influenza A virus, UniProt Q6DPL2); assay type: biochemical
A/Udorn/72 (H3N2) = experiment: microbe, parasite or virus in culture; assay type: cell-based, influenza A/Udorn/72 (H3N2); details: Influenza A virus, H3N2, MDCK, read-out: EC50 for viral plaque formation
[1] = biological target: NA of influenza NIBRG14 (H5N1) (Influenza A virus, UniProt Q6DPL2); assay type: biochemical
Sequence of NA of influenza NIBRG14 (H5N1) (Q6DPL2 whole entry, looked up): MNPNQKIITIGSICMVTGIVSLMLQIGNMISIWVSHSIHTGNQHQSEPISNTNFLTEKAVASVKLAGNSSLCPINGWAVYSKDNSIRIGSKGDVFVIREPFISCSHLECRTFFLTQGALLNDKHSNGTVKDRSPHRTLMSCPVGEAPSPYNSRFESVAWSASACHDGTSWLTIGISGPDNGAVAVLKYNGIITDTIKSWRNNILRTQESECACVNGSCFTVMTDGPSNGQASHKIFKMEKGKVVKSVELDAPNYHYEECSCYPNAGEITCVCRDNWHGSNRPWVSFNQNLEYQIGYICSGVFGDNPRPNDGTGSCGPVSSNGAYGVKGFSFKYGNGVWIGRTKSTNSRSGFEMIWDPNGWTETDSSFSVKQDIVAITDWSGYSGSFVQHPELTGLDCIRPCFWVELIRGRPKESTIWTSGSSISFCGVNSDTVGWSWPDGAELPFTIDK

[2] = tested on: influenza A/WSN/33 (H1N1); experiment: microbe, parasite or virus in culture; assay type: cell-based; details: MDCK, read-out: EC50 for viral plaque formation
A/WSN/33 = assay type: cell-based, influenza A/WSN/33 (H1N1)

Sequence of Bac-NA^WT (Q6DPL2 63-449 limits assumed): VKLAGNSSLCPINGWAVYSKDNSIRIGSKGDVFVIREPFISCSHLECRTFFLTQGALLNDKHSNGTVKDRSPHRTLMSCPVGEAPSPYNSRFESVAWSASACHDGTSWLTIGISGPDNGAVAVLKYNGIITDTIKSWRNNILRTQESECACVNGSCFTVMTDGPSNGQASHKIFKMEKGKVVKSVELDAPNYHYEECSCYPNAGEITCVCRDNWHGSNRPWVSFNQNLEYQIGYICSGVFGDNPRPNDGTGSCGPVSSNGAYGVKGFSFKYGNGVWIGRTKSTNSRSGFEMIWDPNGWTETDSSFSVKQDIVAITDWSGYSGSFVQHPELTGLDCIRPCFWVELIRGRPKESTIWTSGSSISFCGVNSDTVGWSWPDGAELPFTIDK

Q: Which results are given for `Nc1c(S(=O)(=O)O)cc(Nc2cccc(S(=O)(=O)CCOS(=O)(=O)O)c2)c2c1C(=O)c1ccccc1C2=O` [RB19, remazol brilliant blue R]?
A: virus yields (fluorogenic signal of NA activity) (A/WSN/33 (H1N1)): dramatically reduced virus yields; IC50 (Bac-NA^WT): 3.4 µM; EC50 (A/Udorn/72 (H3N2)): 2800 nM; IC50 [1]: 5.7 µM; EC50 [2]: 2700 nM; influenza-induced cytopathic effect (A/WSN/33): inhibited the influenza-induced cytopathic effect
